# Experimental data as given in patent publication US20230094922A1, “METHODS OF THERAPEUTIC PROGNOSTICATION” (GENETIKAPLUS LTD., priority 2020, published 2023).
# Test system: iPSC-derived cortical neurons
# Type: cell-based
# Conditions: responders vs non-responders, 10 μM Bupropion
smiles,measurement,setting,value
"CC(NC(C)(C)C)C(=O)c1cccc(Cl)c1 (stereo not drawn) [Bupropion, 3-Chloro-N-tert-butyl-β-keto-α-methylphenethylamin]",logFC LGI1 expression,p<0.01,0.9793
same,logFC LRRC8B expression,p<0.01,0.4223
same,logFC MCM4 expression,p<0.01,0.5295
same,logFC MCUR1 expression,p<0.01,0.2421
same,logFC MDN1 expression,p<0.01,0.4167
same,logFC MEIOC expression,p<0.01,0.7172
same,logFC MGA expression,p<0.01,0.3064
same,logFC MGME1 expression,p<0.01,0.4368
same,logFC MZT1 expression,p<0.01,0.4887
same,logFC NFKBID expression,p<0.01,0.4452
same,logFC NOS2 expression,p<0.01,1.462
same,logFC NPY2R expression,p<0.01,1.653
same,logFC OSBPL11 expression,p<0.01,0.3394
same,logFC PAWR expression,p<0.01,0.4771
same,logFC PCGF5 expression,p<0.01,0.6056
same,logFC PHF6 expression,p<0.01,0.4686
same,logFC POU5F1B expression,p<0.01,0.9729
same,logFC PPAT expression,p<0.01,0.4669
same,logFC PRKDC expression,p<0.01,0.3963
same,logFC PTPN13 expression,p<0.01,0.5645
same,logFC RNGTT expression,p<0.01,0.3114
same,logFC S100A13 expression,p<0.01,0.7404
same,logFC SELENOI expression,p<0.01,0.336
same,logFC SFRP4 expression,p<0.01,1.737
same,logFC SIGLEC10 expression,p<0.01,0.8067
same,logFC SIKE1 expression,p<0.01,0.3013
same,logFC SIM1 expression,p<0.01,2.052
same,logFC SLC7A11 expression,p<0.01,0.6075
same,logFC SLC25A13 expression,p<0.01,0.3285
same,logFC SLC25A17 expression,p<0.01,0.3611
same,logFC SMG1 expression,p<0.01,0.2796
same,logFC SNRNP48 expression,p<0.01,0.4371
same,logFC SPIN4 expression,p<0.01,0.4838
same,logFC STK38L expression,p<0.01,0.387
same,logFC SYCP2L expression,p<0.01,0.5973
same,logFC TFAM expression,p<0.01,0.4583
same,logFC TIGAR expression,p<0.01,0.4965
same,logFC TNFRSF13C expression,p<0.01,0.5218
same,logFC TSGA10IP expression,p<0.01,0.8595
same,logFC TXNRD1 expression,p<0.01,0.3112
same,logFC USP37 expression,p<0.01,0.2938
same,logFC WNT8B expression,p<0.01,1.79
same,logFC WNT10B expression,p<0.01,1.077
same,logFC WWP1 expression,p<0.01,0.3073
same,logFC ZBTB24 expression,p<0.01,0.4021
same,logFC ZC3H13 expression,p<0.01,0.2827
same,logFC ZNF347 expression,p<0.01,0.3648
same,logFC ZWILCH expression,p<0.01,0.4164
same,logFC ACKR1,PValue NS,−1.506
same,logFC ACVR2A,PValue NS,−0.6074
same,logFC ADGRA1,PValue NS,−1.373
same,logFC ADGRG1,PValue NS,−0.7037
same,logFC AFAP1,PValue NS,−0.7585
same,logFC ANKRD34A,PValue NS,−1.243
same,logFC APBA1,PValue NS,−1.797
same,logFC APC2,PValue NS,−1.57
same,logFC APOL6,PValue NS,−1.252
same,logFC ARHGAP22,PValue NS,−2.023
same,logFC ASIC2,PValue NS,−1.907
same,logFC ATL1,PValue NS,−1.284
same,logFC ATP8A1,PValue NS,−1.064
same,logFC BCL11A,PValue NS,−1.755
same,logFC BTBD8,PValue NS,−0.8605
same,logFC C1QL1,PValue NS,−1.952
same,logFC C11orf87,PValue NS,−2.65
same,logFC C11orf95,PValue NS,−0.652
same,logFC C14orf132,PValue NS,−1.198
same,logFC CACNA1E,PValue NS,−1.888
same,logFC CALY,PValue NS,−1.348
same,logFC CARMIL3,PValue NS,−1.181
same,logFC CBFA2T3,PValue NS,−1.14
same,logFC CDKN2D,PValue NS,−1.375
same,logFC CEND1,PValue NS,−1.295
same,logFC CHD5,PValue NS,−1.435
same,logFC CHRNB4,PValue NS,−1.488
same,logFC CHRNG,PValue NS,−1.545
same,logFC CNR1,PValue NS,−1.187
same,logFC CNTN2,PValue NS,−2.494
same,logFC CRYGD,PValue NS,−3.453
same,logFC CTIF,PValue NS,−0.9638
same,logFC DACT3,PValue NS,−0.903
same,logFC DCLK1,PValue NS,−1.159
same,logFC DISP3,PValue NS,−1.132
same,logFC DLGAP3,PValue NS,−1.159
same,logFC DLL4,PValue NS,−2.038
same,logFC DNAJC6,PValue NS,−1.057
same,logFC DNAJC12,PValue NS,−0.9874
same,logFC DNM3,PValue NS,−1.295
same,logFC DOC2B,PValue NS,−2.034
same,logFC DOK4,PValue NS,−0.8299
same,logFC DPF3,PValue NS,−1.335
same,logFC DPP6,PValue NS,−1.175
same,logFC DUSP8,PValue NS,−1.12
same,logFC DUSP26,PValue NS,−1.67
same,logFC ELAVL2,PValue NS,−0.9184
same,logFC ELAVL3,PValue NS,−1.463
same,logFC ELMOD1,PValue NS,−1.395
same,logFC EPHB2,PValue NS,−1.009
same,logFC ERC2,PValue NS,−0.9757
same,logFC ESRRB,PValue NS,−1.635
same,logFC ESRRG,PValue NS,−1.003
same,logFC FAM78B,PValue NS,−1.309
same,logFC FAM131C,PValue NS,−1.177
same,logFC FAM155A,PValue NS,−0.6581
same,logFC FBLL1,PValue NS,−1.499
same,logFC FBXL16,PValue NS,−0.9816
same,logFC FLRT2,PValue NS,−0.9821
same,logFC FRRS1L,PValue NS,−1.313
same,logFC GALNT15,PValue NS,−1.592
same,logFC GDAP1L1,PValue NS,−1.2
same,logFC GDI1,PValue NS,−0.5928
same,logFC GNAT3,PValue NS,−1.874
same,logFC GNAZ,PValue NS,−0.8379
same,logFC GNG2,PValue NS,−1.148
same,logFC GPR12,PValue NS,−2.094
same,logFC GPR83,PValue NS,−1.576
same,logFC GPRASP1,PValue NS,−0.7562
same,logFC GPRIN3,PValue NS,−1.516
same,logFC GRIN2B,PValue NS,−2.921
same,logFC GRIN3A,PValue NS,−2.57
same,logFC GRM6,PValue NS,−1.37
same,logFC GRM7,PValue NS,−1.699
same,logFC GSE1,PValue NS,−0.6973
same,logFC GSTM3,PValue NS,−1.177
same,logFC HIVEP3,PValue NS,−1.261
same,logFC HPCAL4,PValue NS,−1.489
same,logFC INSYN1,PValue NS,−1.208
same,logFC INSYN2A,PValue NS,−1.914
same,logFC IQSEC3,PValue NS,−1.513
same,logFC JAKMIP3,PValue NS,−0.927
same,logFC KIDINS220,PValue NS,−0.8542
same,logFC KIF1A,PValue NS,−1.165
same,logFC KIF21B,PValue NS,−1.336
same,logFC KLF7,PValue NS,−0.8775
same,logFC L1CAM,PValue NS,−1.21
same,logFC LANCL2,PValue NS,−0.7582
same,logFC LBH,PValue NS,−0.8003
same,logFC MACO1,PValue NS,−0.6324
same,logFC MADD,PValue NS,−0.7392
same,logFC MAGEE1,PValue NS,−0.8404
same,logFC MANEAL,PValue NS,−1.302
same,logFC MAOA,PValue NS,−1.531
same,logFC MAP3K10,PValue NS,−0.7965
same,logFC MAPK8IP1,PValue NS,−1.32
same,logFC MAPT,PValue NS,−1.894
same,logFC MCF2L,PValue NS,−1.13
same,logFC MDGA1,PValue NS,−1.126
same,logFC MLLT11,PValue NS,−1.039
same,logFC MSANTD1,PValue NS,−1.341
same,logFC MTMR4,PValue NS,−0.6785
same,logFC MVB12B,PValue NS,−1.106
same,logFC MYH3,PValue NS,−3.064
same,logFC MYH6,PValue NS,−3.72
same,logFC MYT1,PValue NS,−1.297
same,logFC MYT1L,PValue NS,−2.032
same,logFC NAPB,PValue NS,−1.05
same,logFC NCAN,PValue NS,−1.327
same,logFC NCS1,PValue NS,−1.056
same,logFC NDP,PValue NS,−2.196
same,logFC NEFL,PValue NS,−0.8556
same,logFC NKAIN2,PValue NS,−1.212
same,logFC NOL4L,PValue NS,−0.7376
same,logFC NRN1,PValue NS,−0.9586
same,logFC NRXN2,PValue NS,−1.352
same,logFC NTRK1,PValue NS,−1.53
same,logFC NTS,PValue NS,−1.335
same,logFC NXPH1,PValue NS,−2.191
same,logFC OLFM1,PValue NS,−1.154
same,logFC OSBP2,PValue NS,−1.125
same,logFC PCDHA5,PValue NS,−1.076
same,logFC PCDHA7,PValue NS,−1.111
same,logFC PCDHB13,PValue NS,−1.168
same,logFC PCDHB15,PValue NS,−1.085
same,logFC PCDHGA4,PValue NS,−1.156
same,logFC PCDHGA6,PValue NS,−1.871
same,logFC PCSK2,PValue NS,−1.936
same,logFC PEG3,PValue NS,−3.912
same,logFC PEX5L,PValue NS,−1.625
same,logFC PHACTR1,PValue NS,−1.247
same,logFC PIP4K2B,PValue NS,−0.6164
same,logFC PLCL1,PValue NS,−1.271
same,logFC PLPPR4,PValue NS,−2.082
same,logFC PLPPR5,PValue NS,−1.467
same,logFC PLXNA4,PValue NS,−1.432
same,logFC PNMA6A,PValue NS,−1.328
same,logFC PODXL2,PValue NS,−0.8136
same,logFC PRKAR1B,PValue NS,−1.374
same,logFC PTGFR,PValue NS,−2.027
same,logFC PTPRT,PValue NS,−1.789
same,logFC QPCT,PValue NS,−1.04
same,logFC RALYL,PValue NS,−2.285
same,logFC RGN,PValue NS,−1.436
same,logFC RIMS3,PValue NS,−1.119
same,logFC ROBO2,PValue NS,−1.394
same,logFC RPS6KL1,PValue NS,−1.019
same,logFC RTN2,PValue NS,−0.9099
same,logFC RTN4,PValue NS,−0.6753
same,logFC RUNDC3A,PValue NS,−1.678
same,logFC RUSC2,PValue NS,−0.9937
same,logFC SBK1,PValue NS,−0.9487
same,logFC SCAMP5,PValue NS,−0.8113
same,logFC SCRT1,PValue NS,−1.427
same,logFC SEPTIN4,PValue NS,−1.513
same,logFC SGIP1,PValue NS,−1.239
same,logFC SH3GL2,PValue NS,−1.666
same,logFC SHC2,PValue NS,−0.6933
same,logFC SHC4,PValue NS,−2.453
same,logFC SHISA7,PValue NS,−1.011
same,logFC SLC1A4,PValue NS,−1.383
same,logFC SLC4A3,PValue NS,−1.275
same,logFC SLC6A17,PValue NS,−2.434
same,logFC SLC24A3,PValue NS,−1.458
same,logFC SLC30A10,PValue NS,−1.88
same,logFC SLIT1,PValue NS,−1.122
same,logFC SLITRK3,PValue NS,−2.443
same,logFC SMIM18,PValue NS,−1.721
same,logFC SMIM22,PValue NS,−1.921
same,logFC SNAP25,PValue NS,−1.475
same,logFC SNN,PValue NS,−0.6591
same,logFC SOBP,PValue NS,−0.9125
same,logFC SOGA3,PValue NS,−1.2
same,logFC SOX4,PValue NS,−0.6592
same,logFC SPOCK2,PValue NS,−2.032
same,logFC SPRN,PValue NS,−1.245
same,logFC SRL,PValue NS,−1.711
same,logFC STMN3,PValue NS,−1.145
same,logFC SYT3,PValue NS,−1.332
same,logFC SYT4,PValue NS,−1.54
same,logFC SYT5,PValue NS,−1.94
same,logFC SYT11,PValue NS,−0.7686
same,logFC TACR1,PValue NS,−1.666
same,logFC TAFA2,PValue NS,−1.304
same,logFC TBC1D30,PValue NS,−1.541
same,logFC TCEAL6,PValue NS,−2.546
same,logFC TMCC2,PValue NS,−0.92
same,logFC TMEM35A,PValue NS,−1.274
same,logFC TMEM179,PValue NS,−1.494
same,logFC TMEM229B,PValue NS,−1.955
same,logFC TMOD2,PValue NS,−1.477
same,logFC TNR,PValue NS,−2.583
same,logFC TRIM67,PValue NS,−1.894
same,logFC UBE2QL1,PValue NS,−1.575
same,logFC UNC13A,PValue NS,−0.9018
same,logFC VAMP2,PValue NS,−0.7327
same,logFC VSTM2L,PValue NS,−1.008
same,logFC VWC2,PValue NS,−2.201
same,logFC XKR4,PValue NS,−1.301
same,logFC XKR7,PValue NS,−1.252
same,logFC ZNF436,PValue NS,−0.8527
same,logFC ZNF836,PValue NS,−0.9494
